Where a name gives a salt, the structure may show the parent alone.
Key:
Adrenergic β2 = molecular target: T1, Adrenergic β2 (Homo sapiens, UniProt P07550); assay: Adrenergic β2 mediated cAMP production in H292 cells; format: cell-based; details: for EC50: H292 cells, cAMP by AlphaScreen, 60 minutes at room temperature, rolipram 300 μM, read-out: β2 pEC50 (converted); for β2 Int Act: Intrinsic Activity as a fraction relative to the maximum activity determined for formoterol
T1 construct: Adherent H292 cells were removed from tissue culture flasks; endogenous in cells; host or cells: H292 cells
Protocol: Adrenergic β2 mediated cAMP production
H292 cells were grown in 225 cm2 flasks incubator at 37° C., 5% CO2 in RPMI medium containing, 10% (v/v) FBS (foetal bovine serum) and 2 mM L-glutamine.
Adherent H292 cells were removed from tissue culture flasks by treatment with Accutase™ cell detachment solution for 15 minutes. Flasks were incubated for 15 minutes in a humidified incubator at 37° C., 5% CO2. Detached cells were re-suspended in RPMI media (containing 10% (v/v) FBS and 2 mM L-glutamine) at 0.05×10^6 cells per mL. 5000 cells in 100 μL were added to each well of a tissue-culture-treated 96-well plate and the cells incubated overnight in a humidified incubator at 37° C., 5% CO2. The culture media was removed and cells were washed twice with 100 μL assay buffer and replaced with 50 μL assay buffer (HBSS solution containing 10 mM HEPES pH7.4 and 5 mM glucose). Cells were rested at room temperature for 20 minutes after which time 25 μL of rolipram (1.2 mM made up in assay buffer containing 2.4% (v/v) dimethylsulphoxide) was added. Cells were incubated with rolipram for 10 minutes after which time test compounds were added and the cells were incubated for 60 minutes at room temperature. The final rolipram concentration in the assay was 300 μM and final vehicle concentration was 1.6% (v/v) dimethylsulphoxide. The reaction was stopped by removing supernatants, washing once with 100 μL assay buffer and replacing with 50 μL lysis buffer. The cell monolayer was frozen at −80° C. for 30 minutes (or overnight).
The concentration of cAMP (cyclic adenosine monophosphate) in the cell lysate was determined using AlphaScreen™ methodology. The frozen cell plate was thawed for 20 minutes on a plate shaker then 10 μL of the cell lysate was transferred to a 96-well white plate. 40 μL of mixed AlphaScreen™ detection beads pre-incubated with biotinylated cAMP, was added to each well and the plate incubated at room temperature for 10 hours in the dark. The AlphaScreen™ signal was measured using an EnVision spectrophotometer (Perkin-Elmer Inc.) with the recommended manufacturer's settings. cAMP concentrations were determined by reference to a calibration curve determined in the same experiment using standard cAMP concentrations. Concentration response curves for agonists were constructed and data was fitted to a four parameter logistic equation to determine both the pEC50 and Intrinsic Activity. Intrinsic Activity was expressed as a fraction relative to the maximum activity determined for formoterol in each experiment.

[1] = molecular target: T2, recombinant human Dopamine Subtype D2s receptors (Homo sapiens, UniProt P14416); assay: Dopamine D2 selectivity binding assay ([3H]-spiperone); details: inhibition of [3H]-spiperone (0.16 nM) binding; read-out: D2 bind pIC50 (converted)
T2 construct: purchased Perkin Elmer
Protocol: Membranes containing recombinant human Dopamine Subtype D2s receptors were obtained from Perkin Elmer. These were diluted in Assay Buffer (50 mM HEPES, 1 mM EDTA, 120 mM NaCl, 0.1% gelatin, pH 7.4) to provide a final concentration of membranes that gave a clear window between maximum and minimum specific binding.
(§1) Assays were performed in U-bottomed 96-well polypropylene plates. 30 μL [^3H]-spiperone (0.16 nM final concentration) and 30 μL of test compound (10× final concentration) were added to each test well. For each assay plate 8 replicates were obtained for [^3H]-spiperone binding in the presence of 30 μL vehicle (10% (v/v) DMSO in Assay Buffer; defining maximum binding) or 30 μL Haloperidol (10 μM final concentration; defining non-specific binding (NSB)). Membranes were then added to achieve a final volume of 300 μL. The plates were incubated for 2 hours at room temperature and then filtered onto PEI coated GF/B filter plates, pre-soaked for 1 hour in Assay Buffer, using a 96-well plate Tomtec cell harvester. Five washes with 250 μL wash buffer (50 mM HEPES, 1 mM EDTA, 120 mM NaCl, pH 7.4) were performed at 4° C. to remove unbound radioactivity. The plates were dried then sealed from underneath using Packard plate sealers and MicroScint-O (50 μL) was added to each well. The plates were sealed (TopSeal A) and filter-bound radioactivity was measured with a scintillation counter (TopCount, Packard BioScience) using a 3-minute counting protocol.
(§2) Total specific binding (B0) was determined by subtracting the mean NSB from the mean maximum binding. NSB values were also subtracted from values from all other wells. […] Data was fitted to a four parameter logistic equation to determine the compound potency, which was expressed as pIC50 (negative log molar concentration inducing 50% inhibition of [^3H]-spiperone binding).

[2] = molecular target: T3, recombinant human α1D receptor (Homo sapiens, UniProt P25100); assay: Adrenergic α1D selectivity binding assay ([3H]-prazosin); details: inhibition of [3H]-prazosin (0.3 nM) binding, HEK293 membranes; read-out: α1 bind pIC50 (converted)
T3 construct: expressed in transfected cells; host or cells: HEK293
T3 sequence (P25100 1-572): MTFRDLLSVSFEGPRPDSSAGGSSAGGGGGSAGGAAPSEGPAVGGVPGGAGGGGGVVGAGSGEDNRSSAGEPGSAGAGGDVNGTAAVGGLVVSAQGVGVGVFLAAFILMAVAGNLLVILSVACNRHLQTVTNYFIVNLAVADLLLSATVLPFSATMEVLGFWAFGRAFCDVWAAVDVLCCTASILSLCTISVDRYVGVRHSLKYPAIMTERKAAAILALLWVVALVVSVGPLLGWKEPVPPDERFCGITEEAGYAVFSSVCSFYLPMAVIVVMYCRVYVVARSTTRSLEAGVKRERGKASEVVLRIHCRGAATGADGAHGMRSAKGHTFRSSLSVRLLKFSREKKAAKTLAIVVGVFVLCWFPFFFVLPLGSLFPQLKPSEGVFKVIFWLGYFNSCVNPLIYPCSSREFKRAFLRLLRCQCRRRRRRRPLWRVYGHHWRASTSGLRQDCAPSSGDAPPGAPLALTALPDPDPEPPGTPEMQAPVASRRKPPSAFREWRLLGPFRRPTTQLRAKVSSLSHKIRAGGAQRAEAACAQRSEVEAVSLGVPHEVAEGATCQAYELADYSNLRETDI
Protocol: Membranes were prepared from human embryonic kidney 293 (HEK293) cells expressing recombinant human α1D receptor. These were diluted in Assay Buffer (50 mM HEPES, 1 mM EDTA, 0.1% gelatin, pH 7.4) to provide a final concentration of membranes that gave a clear window between maximum and minimum specific binding.
as §1, with “10” for “30”, “[^3H]-prazosin (0.3” for “[^3H]-spiperone (0.16”, “[^3H]-prazosin” for “[^3H]-spiperone”, “BMY7378” for “Haloperidol”, “100” for “300”, “EDTA,” for “EDTA, 120 mM NaCl,”
as §2, with “[^3H]-prazosin” for “[^3H]-spiperone”

T2 sequence (P14416 1-414 isoform P14416-2): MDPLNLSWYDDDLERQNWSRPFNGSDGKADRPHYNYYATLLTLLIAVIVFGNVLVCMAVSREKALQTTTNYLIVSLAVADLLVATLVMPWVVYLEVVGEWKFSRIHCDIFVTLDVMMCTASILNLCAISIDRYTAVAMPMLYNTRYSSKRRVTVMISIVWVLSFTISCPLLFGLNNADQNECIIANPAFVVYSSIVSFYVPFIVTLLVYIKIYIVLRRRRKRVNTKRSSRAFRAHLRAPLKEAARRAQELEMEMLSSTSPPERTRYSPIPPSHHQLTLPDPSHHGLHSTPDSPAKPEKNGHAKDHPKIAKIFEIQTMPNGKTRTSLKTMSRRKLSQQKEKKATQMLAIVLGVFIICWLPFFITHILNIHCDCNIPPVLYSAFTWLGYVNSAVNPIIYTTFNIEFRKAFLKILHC
T1 sequence (P07550 whole entry): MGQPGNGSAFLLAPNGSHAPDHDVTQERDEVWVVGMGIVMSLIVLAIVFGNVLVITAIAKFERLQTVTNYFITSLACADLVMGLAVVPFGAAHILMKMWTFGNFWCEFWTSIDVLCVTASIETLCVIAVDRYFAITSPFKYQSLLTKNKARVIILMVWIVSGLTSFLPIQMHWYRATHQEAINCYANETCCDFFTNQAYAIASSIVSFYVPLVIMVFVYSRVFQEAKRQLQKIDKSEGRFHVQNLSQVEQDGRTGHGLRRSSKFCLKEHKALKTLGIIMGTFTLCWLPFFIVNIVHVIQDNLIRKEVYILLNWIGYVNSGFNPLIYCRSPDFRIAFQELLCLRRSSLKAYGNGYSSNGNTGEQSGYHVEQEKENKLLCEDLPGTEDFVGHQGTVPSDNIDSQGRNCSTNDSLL

SMILES | EC50 (Adrenergic β2) | β2 Int Act (Adrenergic β2) | IC50 [1] | IC50 [2]
C[C@@H](CNCCC(=O)N(CCNCCc1ccc(O)c2[nH]c(=O)sc12)C1CCCCC1)c1ccccc1 [Example 20, N-Cyclohexyl-N-(2-{[2-(4-hydroxy-2-oxo-2,3-dihydro-1,3-benzothiazol-7-yl)ethyl]amino}ethyl)-N^3-[(2R)-2-phenylpropyl]-β-alaninamide bis-trifluoroacetic acid salt] | 10 nM | 0.97 | 794 nM | 251 nM
C[C@H](CNCCC(=O)N(CCNCCc1ccc(O)c2[nH]c(=O)sc12)C1CCCCC1)c1ccccc1 [Example 18, N-Cyclohexyl-N-(2-{[2-(4-hydroxy-2-oxo-2,3-dihydro-1,3-benzothiazol-7-yl)ethyl]amino}ethyl)-N^3-[(2S)-2-phenylpropyl]-β-alaninamide bis-trifluoroacetic acid salt] | 3.98 nM | 0.89 | 794 nM | 200 nM
COc1cccc(CCNCCC(=O)N(CCNCCc2ccc(O)c3[nH]c(=O)sc23)C2CCCCC2)c1 [Example 70, N^1-Cyclohexyl-N^1-(2-{[2-(4-hydroxy-2-oxo-2,3-dihydro-1,3-benzothiazol-7-yl)ethyl]amino}ethyl)-N^3-[2-(3-methoxyphenyl)ethyl]-β-alaninamide bis-trifluoroacetic acid salt] | 5.01 nM | 0.84 | 200 nM | 126 nM
Cc1cccc(CCNCCC(=O)N(CCNCCc2ccc(O)c3[nH]c(=O)sc23)CC(C)(C)C)c1 [Example 10, N-(2,2-Dimethylpropyl)-N-(2-{[2-(4-hydroxy-2-oxo-2,3-dihydro-1,3-benzothiazol-7-yl)ethyl]amino}ethyl)-N^3-[2-(3-methylphenyl)ethyl]-β-alaninamide bis-trifluoroacetic acid salt] | 5.01 nM | 0.69 | 794 nM | 251 nM
CC(C)(CO)CN(CCNCCc1ccc(O)c2[nH]c(=O)sc12)C(=O)CCNCCc1ccc(Cl)cc1 [Example 40, N^3-[2-(4-Chlorophenyl)ethyl]-N-(3-hydroxy-2,2-dimethylpropyl)-N-(2-{[2-(4-hydroxy-2-oxo-2,3-dihydro-1,3-benzothiazol-7-yl)ethyl]amino}ethyl)-β-alaninamide diacetic acid salt] | 63.1 nM | 0.64 | 794 nM | 794 nM
CC(C)N(CCNCCc1ccc(O)c2[nH]c(=O)sc12)C(=O)CCNCCc1ccccc1 [Example 1, N-(2-{[2-(4-Hydroxy-2-oxo-2,3-dihydro-1,3-benzothiazol-7-yl)ethyl]amino}ethyl)-N-isopropyl-N^3-(2-phenylethyl)-β-alaninamide bis-trifluoroacetic acid salt] | 20 nM | 0.78 | 398 nM | 251 nM
O=C(CCNCCc1ccccn1)N(CCNCCc1ccc(O)c2[nH]c(=O)sc12)C1CCCCC1 [Example 33, N-Cyclohexyl-N-(2-{[2-(4-hydroxy-2-oxo-2,3-dihydro-1,3-benzothiazol-7-yl)ethyl]amino}ethyl)-N^3-(2-pyridin-2-ylethyl)-β-alaninamide bis-trifluoroacetic acid salt] | 15.8 nM | 0.78 | 631 nM | 100 nM
CC(=O)OCC(C)(C)CN(CCNCCc1ccc(O)c2[nH]c(=O)sc12)C(=O)CCNCCc1ccc(Cl)cc1 [Example 39, 3-[{N-[2-(4-Chlorophenyl)ethyl]-β-alanyl}(2-{[2-(4-hydroxy-2-oxo-2,3-dihydro-1,3-benzothiazol-7-yl)ethyl]amino}ethyl)amino]-2,2-dimethylpropyl acetate diacetic acid salt] | 251 nM | 0.58 | 1260 nM | 631 nM
CC(C)(Cc1ccccc1)NCCC(=O)N(CCNCCc1ccc(O)c2[nH]c(=O)sc12)C1CCCCC1 [Example 19, N-Cyclohexyl-N^3-(1,1-dimethyl-2-phenylethyl)-N-(2-{[2-(4-hydroxy-2-oxo-2,3-dihydro-1,3-benzothiazol-7-yl)ethyl]amino}ethyl)-β-alaninamide bis-trifluoroacetic acid salt] | 39.8 nM | 0.70 | 1000 nM | 398 nM
O=C(CCNCCC(F)(F)F)N(CCNCCc1ccc(O)c2[nH]c(=O)sc12)C1CCCCC1 [Example 80, N^1-Cyclohexyl-N^1-(2-{[2-(4-hydroxy-2-oxo-2,3-dihydro-1,3-benzothiazol-7-yl)ethyl]amino}ethyl)-N^3-(3,3,3-trifluoropropyl)-β-alaninamide bis-trifluoroacetic acid salt] | 126 nM | 0.86 | 398 nM | 1260 nM
